Reference: publication PMC6176658, “Experimentally Validated Pharmacoinformatics Approach to Predict hERG Inhibition Potential of New Chemical Entities” (Frontiers in Pharmacology, 2018)

Molecular target: T1, hERG (Kv11.1) potassium channel (Homo sapiens, UniProt Q12809)
T1 construct: gene KCNH2
Assay: cell-based

T1 sequence (Q12809 whole entry): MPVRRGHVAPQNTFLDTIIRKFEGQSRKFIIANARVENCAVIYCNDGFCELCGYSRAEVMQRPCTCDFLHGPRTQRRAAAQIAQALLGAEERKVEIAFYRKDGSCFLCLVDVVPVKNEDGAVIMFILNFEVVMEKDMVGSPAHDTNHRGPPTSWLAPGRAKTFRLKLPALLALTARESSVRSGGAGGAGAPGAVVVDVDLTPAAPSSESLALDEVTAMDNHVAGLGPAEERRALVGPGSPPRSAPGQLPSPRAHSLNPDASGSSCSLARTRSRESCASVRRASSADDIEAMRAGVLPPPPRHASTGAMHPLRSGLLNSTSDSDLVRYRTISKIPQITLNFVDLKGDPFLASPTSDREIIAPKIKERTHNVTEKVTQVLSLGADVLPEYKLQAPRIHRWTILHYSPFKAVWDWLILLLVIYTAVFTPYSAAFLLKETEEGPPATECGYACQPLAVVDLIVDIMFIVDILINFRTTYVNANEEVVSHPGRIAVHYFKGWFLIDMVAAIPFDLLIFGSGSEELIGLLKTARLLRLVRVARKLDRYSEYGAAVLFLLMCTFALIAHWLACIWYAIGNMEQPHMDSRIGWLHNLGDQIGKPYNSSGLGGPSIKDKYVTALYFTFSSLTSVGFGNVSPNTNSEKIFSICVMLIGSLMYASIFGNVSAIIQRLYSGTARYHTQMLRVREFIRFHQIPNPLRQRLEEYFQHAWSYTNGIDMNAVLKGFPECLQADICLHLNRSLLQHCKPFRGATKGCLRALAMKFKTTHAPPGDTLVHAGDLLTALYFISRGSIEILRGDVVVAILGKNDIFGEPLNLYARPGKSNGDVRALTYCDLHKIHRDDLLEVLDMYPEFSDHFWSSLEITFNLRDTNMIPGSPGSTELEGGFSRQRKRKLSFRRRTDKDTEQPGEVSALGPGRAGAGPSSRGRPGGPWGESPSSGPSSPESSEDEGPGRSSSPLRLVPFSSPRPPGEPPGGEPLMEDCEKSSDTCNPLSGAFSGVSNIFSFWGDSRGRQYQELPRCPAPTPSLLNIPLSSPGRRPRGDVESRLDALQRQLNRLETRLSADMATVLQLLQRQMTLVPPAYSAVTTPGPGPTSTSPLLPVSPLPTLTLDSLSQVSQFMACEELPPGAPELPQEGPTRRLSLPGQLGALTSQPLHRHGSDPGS

CCOC(=O)c1cc(C)n(-c2ccccc2)c1C [OSM-S-31] was tested, and the IC50 was 3.89 µM.
